The conditions of series [1]: racemic mixture administered to a human; cited from earlier work.
Series [2] in a line: release rate of the active ingredient from capsules and tablets (European Pharmacopoeia, chapter 2.9.3.). The format is physicochemical. Conditions: tablets of recipe C2 composition with fine-crystalline mixture of the drug and microcrystalline cellulose, direct pressing (FIG. 5 and 6). The procedure: The release rate of the active ingredient from the capsules prepared by the process described above, and for comparison also from the tablets, was tested by the method of the European Pharmacopoeia for testing solid pharmaceutical forms (chapter 2.9.3.). The medium used was phosphate buffer having pH 7.2.

Series [3] is described as follows: most commonly represented sizes of crystals (photographs of the crystals). The format is physicochemical. From the text:
The auxiliary substance in the fine-crystalline mixtures was Avicel®.

On to `CC(C)Cc1ccc([C@@H](C)C(=O)O)cc1` [R(−)-ibuprofen, R(−)-2-(4-isobutylphenyl)-propionic acid], for which, in series [1], the “conversion of R(−)-enantiomer to the S(+) form” value was 50 to 60%.

With `CS(=O)(=O)Nc1ccc([N+](=O)[O-])cc1Oc1ccccc1` [nimesulide, N-(4-nitro-2-phenoxyphenyl)-methanesulphonamide], the “release of the active ingredient from the tablet” value in series [2] is given as “very fast release”. For `CC(C)Cc1ccc([C@H](C)C(=O)O)cc1` [coarse-crystalline S(+)-ibuprofen, S(+)-2-(4-isobutylphenyl)-propionic acid], the “lengthwise size of the stick-form crystals” value in series [3] (starting material (photograph FIG. 7)) was “about 200 micrometers”. In series [3] (starting material, no solvent), this compound came in with a length of crystals of 250 μm and a width of crystals of 65 μm. For `CN1C(C(=O)Nc2ccccn2)=C(O)c2ccccc2S1(=O)=O` [piroxicam, 4-hydroxy-2-methyl-3-[(2-pyridyl)aminocarbonyl]-2H-1,2-benzothiazin-1,1-dioxide], the “release of the active ingredient from the tablet” value in series [2] is “very fast release”.

(Values after patent US20080233187A1, “Method of Production of Fine-Crystalline Mixture Containing Non-Steroid Anti-Inflammatory Drug, Fine-Crystalline Mixture Obtainable by this Method and Solid Pharmaceutical Composition Containing this Mixture” (priority 2005, published 2008).)
